This is an account of results in paper PMC9007951, “Systematically evaluating DOTATATE and FDG as PET immuno-imaging tracers of cardiovascular inflammation” (Scientific Reports, 2022).

The nature of this series: Blood half-life of [^64Cu]Cu-DOTATATE, gamma counting of blood, two-phase decay fit. The series is classed as in vivo, mice. The following applies: for %fast: two-phase decay fit of blood radioactivity over 120 min; for %slow / Weighed t1/2 (weighted blood half-life) / t1/2 fast / t1/2 slow: two-phase decay fit. As for the experimental part: Wild-type and atherosclerotic animals were injected with approximately 1.85 MBq of [^64Cu]Cu-DOTATATE and euthanized at either 1, 5, 15, 30, 60 or 120 min after injection (Supplementary Fig. S1A) to evaluate the tracer’s biodistribution. After euthanasia, an insulin syringe was used to collect blood samples from the right ventricle. Blood samples were used for the establishment of pharmacokinetics profile. Mice were then perfused with 20 mL of phosphate-buffered saline (PBS) and tissues of interest (heart, aorta, bone marrow, spleen, liver, stomach, bladder, kidneys, intestines, lungs, adrenal gland, muscles and pancreas) were harvested. Tissues were blotted for gamma counting on a Wizard2 2480 automatic gamma counter (Perkin Elmer, Waltham, MA). Values were corrected for decay and normalized to tissue weight to express radioactivity concentration as percentage injected dose per gram (%ID/g). […] To investigate the tracer’s distribution within different blood compartments, after gamma counting, 100 μL of blood were spun down at 2000 g for 15 min at 4 °C. Plasma (supernatant) and cells (pellet) were gamma counted and expressed as percentage of total activity. The remainder of the blood was separated using Lymphoprep density gradient medium (Nycomed Pharma, Zurich, Switzerland) following manufacturer’s instructions. Percentage of activity in mononuclear and polynuclear cells was calculated.

Structures are written as SMILES.

In the case of `C[C@@H](O)[C@H](NC(=O)[C@@H]1CSSC[C@H](NC(=O)[C@@H](Cc2ccccc2)NC(=O)CN2CCN(CC(=O)O)CCN(CC(=O)O)CCN(CC(=O)O)CC2)C(=O)N[C@@H](Cc2ccc(O)cc2)C(=O)N[C@H](Cc2c[nH]c3ccccc23)C(=O)N[C@@H](CCCCN)C(=O)N[C@@H]([C@@H](C)O)C(=O)N1)C(=O)O` [[^64Cu]Cu-DOTATATE, metal not drawn], where the note is “Apoe^-/- mice, N = 6”, the “%fast” value is reported as 11.27%, the “%slow” value came out at 88.73%, the “Weighed t1/2 (weighted blood half-life)” value was 6.83 min and the t1/2 fast turned out to be 0.557 min. In addition, the t1/2 slow (Apoe^-/- mice, N = 6) amounted to 7.627 min. Also, under “C57Bl/6 mice, N = 7”, the “%fast” value amounted to 79.14%, the “%slow” value was determined as 20.86%, the “Weighed t1/2 (weighted blood half-life)” value amounted to 4.83 min and the t1/2 fast worked out at 1.939 min. In addition, where the note is “C57Bl/6 mice, N = 7”, the t1/2 slow was determined as 15.81 min.
